Reference: the supplement of paper PMC6045584
± gives the standard deviation of the averaged measurements.

Experiments:
[1] = compound: CC(=O)O[C@H]1C(=O)[C@@]2(C)[C@H]([C@H](OC(=O)c3ccccc3)[C@]3(O)C[C@H](OC(=O)[C@H](O)[C@@H](NC(=O)c4ccccc4)c4ccccc4)C(C)=C1C3(C)C)[C@]1(OC(C)=O)CO[C@@H]1C[C@@H]2O [PACLITAXEL]; test: surviving fraction relative to DMSO-only wells; higher = less growth inhibition; details: exposure time: 5 days
In short: (§1)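 Viability was scored with CellTiter-Glo luminescence and normalised to the median of DMSO-only wells as surviving fraction. Beforehand, log-phase tumour cell lines were seeded at 250–500 cells per well in 384-well plates, allowed 24 hours, and exposed continuously for five days to inhibitors at 0.5, 1, 5, 10, 50, 100, 500 and 1000 nM. Only lines whose three screens gave replicate Pearson r >0.7 and median Z' >0.3 were kept.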

[2] = compound: COCC[n+]1c2c(n(Cc3cnccn3)c1C)C(=O)c1ccccc1C2=O [YM155]; test: as above; details: exposure time: 5 days
In short: as §1

Test System | surviving fraction ([1]; 0.5 nM) | surviving fraction ([1]; 1 nM) | surviving fraction ([1]; 5 nM) | surviving fraction ([1]; 10 nM) | surviving fraction ([1]; 50 nM) | surviving fraction ([1]; 100 nM) | surviving fraction ([1]; 500 nM) | surviving fraction ([1]; 1000 nM) | surviving fraction ([2]; 0.5 nM) | surviving fraction ([2]; 1 nM) | surviving fraction ([2]; 5 nM) | surviving fraction ([2]; 10 nM) | surviving fraction ([2]; 50 nM) | surviving fraction ([2]; 100 nM) | surviving fraction ([2]; 500 nM) | surviving fraction ([2]; 1000 nM)
SYO1 SYNOVIAL | 0.828 ± 0.041 | 0.592 ± 0.015 | 0.107 ± 0.0096 | 0.0752 ± 0.0059 | 0.056 ± 0.0057 | 0.0522 ± 0.0059 | 0.0456 ± 0.0087 | 0.048 ± 0.009 | 0.847 ± 0.01 | 0.967 ± 0.035 | 0.761 ± 0.03 | 0.514 ± 0.012 | 0.0558 ± 0.0015 | 0.0337 ± 0.0012 | 0.0242 ± 0.00051 | 0.0279 ± 0.0021
U2OS BONE | 1 ± 0.037 | 0.985 ± 0.016 | 0.488 ± 0.011 | 0.271 ± 0.012 | 0.106 ± 0.0087 | 0.0817 ± 0.0093 | 0.0593 ± 0.0085 | 0.059 ± 0.001 | 1.02 ± 0.026 | 1.005 ± 0.0056 | 0.616 ± 0.036 | 0.304 ± 0.043 | 0.033 ± 0.001 | 0.023 | 0.021 | 0.0247 ± 0.00058
ASKA SYNOVIAL | 0.851 ± 0.028 | 0.629 ± 0.052 | 0.203 ± 0.011 | 0.194 ± 0.0031 | 0.262 ± 0.0055 | 0.23 ± 0.011 | 0.199 ± 0.016 | 0.229 ± 0.01 | 0.87 ± 0.054 | 0.924 ± 0.094 | 0.719 ± 0.039 | 0.375 ± 0.017 | 0.227 ± 0.017 | 0.195 ± 0.017 | 0.194 ± 0.011 | 0.243 ± 0.017
BT549 BREAST | 0.963 ± 0.13 | 0.219 ± 0.04 | 0.0553 ± 0.0085 | 0.0387 ± 0.0025 | 0.049 ± 0.0079 | 0.041 ± 0.0027 | 0.038 ± 0.0053 | 0.0463 ± 0.014 | 1.08 ± 0.11 | 1.03 ± 0.11 | 0.99 ± 0.0076 | 0.834 ± 0.11 | 0.256 ± 0.083 | 0.0713 ± 0.018 | 0.029 ± 0.008 | 0.0307 ± 0.0023
HOS BONE | 1.01 ± 0.011 | 0.95 ± 0.01 | 0.085 ± 0.003 | 0.0507 ± 0.004 | 0.0357 ± 0.004 | 0.025 ± 0.001 | 0.0223 ± 0.0011 | 0.0217 ± 0.0015 | 0.923 ± 0.0036 | 0.503 ± 0.017 | 0.075 ± 0.0078 | 0.0527 ± 0.0038 | 0.0267 ± 0.00058 | 0.0197 ± 0.00058 | 0.0193 ± 0.00058 | 0.0243 ± 0.00058
HOSMNG BONE | 1.04 ± 0.049 | 1.05 ± 0.11 | 0.921 ± 0.088 | 0.924 ± 0.043 | 0.29 ± 0.031 | 0.12 ± 0.0079 | 0.0573 ± 0.0021 | 0.063 ± 0.0044 | 0.934 ± 0.09 | 0.929 ± 0.1 | 0.889 ± 0.096 | 0.87 ± 0.11 | 0.198 ± 0.0064 | 0.132 ± 0.017 | 0.0837 ± 0.04 | 0.061 ± 0.0036
SNU475 LIVER | 0.8 ± 0.034 | 0.649 ± 0.026 | 0.282 ± 0.018 | 0.2 ± 0.023 | 0.142 ± 0.014 | 0.138 ± 0.0065 | 0.132 ± 0.029 | 0.137 ± 0.008 | 0.815 ± 0.055 | 0.991 ± 0.048 | 0.97 ± 0.044 | 0.944 ± 0.03 | 0.372 ± 0.035 | 0.123 ± 0.012 | 0.0263 ± 0.00058 | 0.0303 ± 0.0015
HCC202 BREAST | 1.15 ± 0.51 | 0.655 ± 0.15 | 0.377 ± 0.091 | 0.364 ± 0.12 | 0.362 ± 0.027 | 0.362 ± 0.047 | 0.352 ± 0.032 | 0.327 ± 0.098 | 1.19 ± 0.025 | 1.13 ± 0.014 | 1.34 ± 0.26 | 1.31 ± 0.22 | 0.411 ± 0.17 | 0.231 ± 0.037 | 0.0315 ± 0.00071 | 0.0335 ± 0.0021
CHLA90 AUTONOMIC GANGLIA | 0.957 ± 0.032 | 0.948 ± 0.056 | 0.507 ± 0.022 | 0.231 ± 0.026 | 0.0937 ± 0.01 | 0.076 ± 0.016 | 0.0513 ± 0.0046 | 0.0577 ± 0.009 | 0.807 ± 0.017 | 0.926 ± 0.075 | 0.734 ± 0.057 | 0.44 ± 0.057 | 0.106 ± 0.028 | 0.0633 ± 0.013 | 0.025 ± 0.0027 | 0.0273 ± 0.0015
HCT15 LARGE INTESTINE | 1.01 ± 0.012 | 1.07 ± 0.024 | 0.95 ± 0.077 | 0.861 ± 0.074 | 0.255 ± 0.064 | 0.0833 ± 0.0076 | 0.04 ± 0.0036 | 0.0453 ± 0.0032 | 0.916 ± 0.056 | 1.01 ± 0.051 | 0.975 ± 0.017 | 0.974 ± 0.029 | 0.467 ± 0.028 | 0.185 ± 0.029 | 0.061 ± 0.0027 | 0.0557 ± 0.0031
MDAMB157 BREAST | 0.867 ± 0.075 | 0.674 ± 0.019 | 0.144 ± 0.022 | 0.105 ± 0.019 | 0.0473 ± 0.016 | 0.0687 ± 0.028 | 0.0473 ± 0.0098 | 0.069 ± 0.011 | 0.958 ± 0.024 | 1.02 ± 0.092 | 0.77 ± 0.037 | 0.799 ± 0.039 | 0.0573 ± 0.024 | 0.031 ± 0.003 | 0.0297 ± 0.0047 | 0.039 ± 0.0046
MDAMB134 BREAST | 0.936 ± 0.055 | 0.994 ± 0.033 | 0.904 ± 0.18 | 0.67 ± 0.13 | 0.587 ± 0.11 | 0.4935 ± 0.00071 | 0.491 ± 0.072 | 0.598 ± 0.077 | 0.783 ± 0.027 | 0.855 ± 0.052 | 0.759 ± 0.037 | 0.5665 ± 0.005 | 0.775 ± 0.051 | 0.634 ± 0.13 | 0.567 ± 0.0014 | 0.435 ± 0.064
HT1080 SOFT TISSUE | 0.772 ± 0.034 | 0.533 ± 0.0091 | 0.133 ± 0.019 | 0.0517 ± 0.0035 | 0.0427 ± 0.0031 | 0.031 ± 0.0017 | 0.0293 ± 0.0025 | 0.0317 ± 0.00058 | 1.03 ± 0.021 | 0.954 ± 0.035 | 0.433 ± 0.0064 | 0.237 ± 0.017 | 0.063 ± 0.0027 | 0.0373 ± 0.0021 | 0.0277 ± 0.00058 | 0.0297 ± 0.00058
MHM BONE | 0.9897 ± 0.0049 | 0.992 ± 0.053 | 0.535 ± 0.021 | 0.339 ± 0.022 | 0.243 ± 0.0095 | 0.216 ± 0.011 | 0.187 ± 0.0059 | 0.177 ± 0.01 | 0.972 ± 0.013 | 0.998 ± 0.021 | 1.01 ± 0.011 | 1.05 ± 0.016 | 0.299 ± 0.013 | 0.202 ± 0.0085 | 0.0287 ± 0.0011 | 0.0323 ± 0.00058
SUM149 BREAST | 0.809 ± 0.053 | 0.452 ± 0.11 | 0.0573 ± 0.004 | 0.0463 ± 0.0085 | 0.0357 ± 0.00058 | 0.0373 ± 0.0038 | 0.0337 ± 0.006 | 0.0307 ± 0.0023 | 0.87 ± 0.17 | 1.07 ± 0.061 | 0.81 ± 0.064 | 0.445 ± 0.093 | 0.044 ± 0.001 | 0.0257 ± 0.0035 | 0.0203 ± 0.0032 | 0.023 ± 0.0036
COLO320DM LARGE INTESTINE | 1.12 ± 0.1 | 1.1 ± 0.091 | 1.1 ± 0.018 | 1.03 ± 0.18 | 0.525 ± 0.033 | 0.292 ± 0.014 | 0.161 ± 0.015 | 0.116 ± 0.0099 | 0.981 ± 0.051 | 1.01 ± 0.063 | 0.994 ± 0.087 | 1.03 ± 0.17 | 0.708 ± 0.059 | 0.528 ± 0.057 | 0.231 ± 0.013 | 0.201 ± 0.012
